Measured values: patent US20080260857A1, “Substance and Method for Treating Neoplasms” (priority 2005, published 2008)

What follows are molecules tested on myeloma NS/0 cells (assay: Myeloma NS/0 tumor in mice). Details: Table 3; i.p. 0.5 ml once a day for 5 days from day 3; Succinate 0.1 mg/mouse, IFN 10^5 IU/mouse, rubomicin 0.016 mg/mouse, etoposide 0.03 mg/mouse; day 21; light water 99.90%; mean ±SD (n=5).
Type: in vivo, DBA/BALB(F1) mice
Procedure: Procedure. DBA/BALB(F1) mice were injected i.p. with 3×10^6 myeloma NS/0 cells to induces tumor. Myeloma NS/O-bearing mice were treated for 5 days since the third day of tumor implantation singly a day with i.p. injection of 0.5 ml saline made on the control water or 0.5 ml saline made on light water. Tumor masses and percent of mitotic cells in bone marrow were measured on day 21. Data are presented in Table 2 as tumor mass mean ±SD (n=5).
Materials and tumor implantation procedure were as described in example 3. Interferon-alpha2b, rubomicin, and etoposide were used as typical anti-neoplasm agents.
Myeloma NS/O-bearing mice were treated for 5 days since the third day singly a day with i.p. injection of 0.5 ml saline made on the water (control), 0.5 ml solution of 0.1 mg/mouse disodium succinate hexahydrate (Succinate) made on the control water, 0.5 ml solution of 10^5 IU/mouse interferon-alpha2b (IFN) made on the control water, 0.5 ml solution of 0.016 mg/mouse rubomicin made on the control water, 0.5 ml solution of 0.03 mg/mouse etoposide made on the control water; 0.5 ml saline made on light water, or 0.5 ml solution of 0.1 mg/mouse disodium succinate hexahydrate (Succinate) made on the light water, and 0.5 ml solution of 10^5 IU/mouse interferon-alpha2b (IFN) made on the light water, 0.5 ml solution of 0.016 mg/mouse rubomicin made on the light water, 0.5 ml solution of 0.03 mg/mouse etoposide made on the light water. Tumor masses were measured on day 21. Data are presented in Table 3 as tumor mass mean ±SD (n=5).

Molecule	Tumor Mass [mg/mouse]
O.O.O.O.O.O.O=C([O-])CCC(=O)[O-].[Na+].[Na+] [Control water + Succinate, disodium succinate hexahydrate]	1780 ± 220
COc1cc([C@@H]2c3cc4c(cc3[C@@H](O[C@@H]3O[C@@H]5CO[C@@H](C)O[C@H]5[C@H](O)[C@H]3O)[C@H]3COC(=O)[C@H]23)OCO4)cc(OC)c1O [Control water + etoposide, etoposide]	1050 ± 120
interferon-alpha2b [Control water + IFN]	1460 ± 180
rubomicin [Control water + rubomicin]	1270 ± 150
